Values quoted from earlier work, collected in patent US8642030B2, “Compositions containing coenzyme Q-10 and dihydrolipoic acid” (EPC Europe GmbH, priority 2006, dated 2014).

Conditions: cited from earlier work

COC1=C(OC)C(=O)C(C/C=C(\C)CC/C=C(\C)CC/C=C(\C)CC/C=C(\C)CC/C=C(\C)CC/C=C(\C)CC/C=C(\C)CC/C=C(\C)CC/C=C(\C)CCC=C(C)C)=C(C)C1=O [CoQ-10]
solubility in most hydrophilic solvents such as water: sparingly soluble
